Patent US10189809B2, “SGC stimulators” (Ironwood Pharmaceuticals, Inc., priority 2010, dated 2019)
Like-named read-outs stand apart in the source and are kept apart here.

Assays:
[1] = biological target: T1, soluble guanylate cyclase (sGC) (Homo sapiens (Human), UniProt Q02108+Q02153); test: sGC-HEK-cGMP assay run with SNP incubation (HEK WC assay); type: cell-based; details: for HEK WC Assay (fold increase at 30 μM in the presence of 10 μM SNP): compound at 30 μM; for EC50: in the presence of 10 uM SNP
Procedure, shortened: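 EC50 values derive from concentration-response curves of intracellular cGMP in HEK293 cells, which express sGC endogenously. Compound and sodium nitroprusside were co-incubated 10 min at 37 °C after a 15-min 0.5 mM IBMX step, with 0.1 M HCl lysis and 1% DMSO vehicle.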

[2] = biological target: T1, soluble guanylate cyclase (sGC); test: sGC-HEK-cGMP assay run in the absence of SNP (HEK WC assay); type: cell-based; details: compound at 30 μM, absence of SNP
Procedure, shortened: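 Intracellular cGMP was measured by LC/MS, using a standard curve, in HEK293 cells treated with compound for 10 min at 37° C after a 15 min 0.5 mM IBMX pretreatment, with no SNP present. Lysis and quench used 0.1 M HCl. EC50 values came from concentration-response fits.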

Thoracic aortic rings = test: Alternative thoracic aortic rings assay (Example 19b; resting tension as 100% inhibition); parameters: species or system rat; details: Rattus norvegicus, Table 10B; for inhibition at 1 µM: read-out: Percent Relaxation at 1 μM; for inhibition at 3 µM: read-out: Percent Relaxation at 3 μM; for inhibition at 10 µM: read-out: Percent Relaxation at 10 μM; for EC50: read-out: Aortic Ring EC50
Method: Thoracic aortic rings were dissected from anesthetized (isoflurane) male Sprague-Dawley rats weighing 275-299 g. Tissues were immediately transferred to ice-cold Krebs-Henseleit solution, which had been aerated with 95% O2 and 5% CO2 for 30 minutes. Following removal of connective tissue, aortic sections were cut into 4 rings (˜2 mm each) and suspended on 2 L-shaped hooks, with one hook fixed at the bottom of the tissue bath (Schuler Organ Bath, Harvard Apparatus) and the other connected to a force transducer (F30 Force Transducer, Harvard Apparatus). Baths contained Krebs Henseleit solution (10 mL) heated to 37° C. and aerated with 95% O2 and 5% CO2. Rings were brought to an initial tension of 0.3-0.5 g and gradually raised to a resting tension of 1.0 g over 60 minutes. Rings were rinsed with Krebs Henseleit solution (heated to 37° C. and aerated with 95% O2 and 5% CO2) at 15 minute intervals until a stable baseline was obtained. Rings were considered to be stable after a resting tension of 1.0 g was maintained (for approximately 10 minutes) without need for adjustment. Rings were then contracted with 100 ng/mL phenylephrine by adding 100 uL of a 10 μg/mL phenylephrine stock solution. Tissues achieving a stable contraction were then treated in a cumulative, dose dependent manner with test compounds prepared in dimethylsulfoxide (DMSO). In some cases, tissues were rinsed three times over a 5 minute period with Krebs-Heinseleit's solution (heated to 37° C. and aerated with 95% O2 and 5% CO2), allowed to stabilize at baseline, and then used for characterization of other test articles or DMSO effects. All data were collected using the HSE-ACAD software provided by Harvard Apparatus. […] EC50 values were calculated from concentration-response curves generated with GraphPad Prism Software.

[3] = read-out: HEK WC Assay (% Emax at 1 μM with 10 uM SNP)
[4] = read-out: HEK WC Assay (% Emax at 10 μM with 10 uM SNP)
[5] = read-out: HEK WC Assay (% Emax at 30 μM with 10 uM SNP)

T1 sequence (Q02153 whole entry): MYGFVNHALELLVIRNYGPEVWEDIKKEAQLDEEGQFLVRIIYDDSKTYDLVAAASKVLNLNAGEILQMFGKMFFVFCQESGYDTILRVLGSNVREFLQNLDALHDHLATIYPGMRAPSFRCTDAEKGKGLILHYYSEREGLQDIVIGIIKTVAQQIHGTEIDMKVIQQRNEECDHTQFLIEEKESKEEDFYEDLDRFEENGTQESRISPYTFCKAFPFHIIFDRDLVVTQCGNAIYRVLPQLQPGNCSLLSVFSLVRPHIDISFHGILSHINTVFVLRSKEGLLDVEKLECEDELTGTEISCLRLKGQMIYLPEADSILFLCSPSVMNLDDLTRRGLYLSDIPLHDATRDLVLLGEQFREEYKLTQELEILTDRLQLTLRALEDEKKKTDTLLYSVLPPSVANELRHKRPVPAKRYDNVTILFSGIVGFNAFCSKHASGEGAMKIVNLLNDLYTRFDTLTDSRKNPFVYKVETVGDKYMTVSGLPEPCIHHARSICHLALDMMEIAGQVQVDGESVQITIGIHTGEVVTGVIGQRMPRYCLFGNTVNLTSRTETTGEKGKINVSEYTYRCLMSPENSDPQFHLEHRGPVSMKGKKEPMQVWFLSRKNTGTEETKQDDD
T1 sequence (Q02108 whole entry): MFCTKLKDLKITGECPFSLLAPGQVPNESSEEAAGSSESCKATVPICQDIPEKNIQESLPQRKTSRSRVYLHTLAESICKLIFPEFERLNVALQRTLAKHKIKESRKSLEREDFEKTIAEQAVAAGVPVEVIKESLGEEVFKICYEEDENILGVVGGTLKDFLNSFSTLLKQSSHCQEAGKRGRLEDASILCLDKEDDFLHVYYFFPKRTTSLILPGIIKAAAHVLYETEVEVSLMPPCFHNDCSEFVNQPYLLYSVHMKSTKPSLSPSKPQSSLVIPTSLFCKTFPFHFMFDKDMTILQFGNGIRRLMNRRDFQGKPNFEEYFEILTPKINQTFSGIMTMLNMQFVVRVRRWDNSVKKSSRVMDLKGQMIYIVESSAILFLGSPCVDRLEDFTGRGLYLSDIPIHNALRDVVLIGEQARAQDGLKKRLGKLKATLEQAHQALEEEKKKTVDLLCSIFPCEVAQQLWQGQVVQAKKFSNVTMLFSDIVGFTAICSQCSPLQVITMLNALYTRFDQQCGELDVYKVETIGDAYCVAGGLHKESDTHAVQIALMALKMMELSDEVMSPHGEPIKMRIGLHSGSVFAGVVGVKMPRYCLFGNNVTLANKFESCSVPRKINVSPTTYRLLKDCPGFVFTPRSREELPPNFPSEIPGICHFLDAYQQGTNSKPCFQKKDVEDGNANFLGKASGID

Nc1nc(-c2cc(-c3ccon3)n(Cc3ccccc3F)n2)ncc1NC(=O)c1ccccc1Cl [Compound I-185] was tested, and the “HEK WC Assay (fold increase at 30 μM in the presence of 10 μM SNP)” value [1] was “E (E = 10 to <20 fold increase)”, the EC50 [1] was less than 20 µM and the Emax [1, 3] was 60 to 80%. The Emax [1, 4] was 80 to 100%, the Emax [1, 5] was 100 to 120% and the “HEK WC Assay (fold increase at 30 μM in the absence of SNP)” value [2] was “E (E = 10 to <20 fold increase)”. It also gave an inhibition at 1 µM (Thoracic aortic rings) of 60 to 80%, an inhibition at 3 µM (Thoracic aortic rings) of 100 to 120% and an inhibition at 10 µM (Thoracic aortic rings) of 100 to 120%. The EC50 (Thoracic aortic rings) was less than 2 µM.
Nc1nc(-c2cc(-c3ccon3)n(Cc3ccccc3F)n2)ncc1NC(=O)c1cnco1 [Compound I-188] was tested, and the “HEK WC Assay (fold increase at 30 μM in the presence of 10 μM SNP)” value [1] was “F (F = 20 to <30 fold increase)”, the EC50 [1] was less than 20 µM and the Emax [1, 3] was 40 to 60%. The Emax [1, 4] was 60 to 80%, the Emax [1, 5] was 60 to 80% and the “HEK WC Assay (fold increase at 30 μM in the absence of SNP)” value [2] was “E (E = 10 to <20 fold increase)”. It also gave an inhibition at 1 µM (Thoracic aortic rings) of 80 to 100%, an inhibition at 3 µM (Thoracic aortic rings) of 100 to 120% and an inhibition at 10 µM (Thoracic aortic rings) of 100 to 120%. The EC50 (Thoracic aortic rings) was less than 2 µM.
With Nc1nc(-c2cc(-c3ccon3)n(Cc3ccccc3F)n2)ncc1NC(=O)OCCCl [Compound I-152] the “HEK WC Assay (fold increase at 30 μM in the presence of 10 μM SNP)” value [1] was “E (E = 10 to <20 fold increase)”, the EC50 [1] was less than 20 µM and the Emax [1, 4] was 60 to 80%. For the same compound, the Emax [1, 5] was 40 to 60%, the “HEK WC Assay (fold increase at 30 μM in the absence of SNP)” value [2] was “E (E = 10 to <20 fold increase)” and the inhibition at 1 µM (Thoracic aortic rings) was 60 to 80%. The inhibition at 3 µM (Thoracic aortic rings) was 80 to 100%, the inhibition at 10 µM (Thoracic aortic rings) was 100 to 120% and the EC50 (Thoracic aortic rings) was less than 2 µM.
For Cc1csc(-c2cc(-c3ncccn3)nn2Cc2ccccc2F)n1 [Compound I-294], the “HEK WC Assay (fold increase at 30 μM in the presence of 10 μM SNP)” value [1] was “D (D = 5 to <10 fold increase)”, the EC50 [1] was 40 to 60 µM and the Emax [1, 4] was 20 to 40%. For the same compound, the Emax [1, 5] was 20 to 40%, the “HEK WC Assay (fold increase at 30 μM in the absence of SNP)” value [2] was “B (B = 1 to <2 fold increase)” and the inhibition at 1 µM (Thoracic aortic rings) was 20 to 40%. The inhibition at 3 µM (Thoracic aortic rings) was 60 to 80%, the inhibition at 10 µM (Thoracic aortic rings) was 100 to 120% and the EC50 (Thoracic aortic rings) was less than 2 µM.
In the case of Nc1nc(-c2cc(-c3ccon3)n(Cc3ccccc3F)n2)ncc1N1CCCC1=O [Compound I-169], the “HEK WC Assay (fold increase at 30 μM in the presence of 10 μM SNP)” value [1] is reported as “D (D = 5 to <10 fold increase)”, the EC50 [1] is reported as less than 20 µM and the Emax [1, 3] is reported as 20 to 40%. For the same compound, the Emax [1, 4] was 40 to 60%, the Emax [1, 5] was 60 to 80% and the “HEK WC Assay (fold increase at 30 μM in the absence of SNP)” value [2] was “C (C = 2 to <5 fold increase)”. It also gave an inhibition at 1 µM (Thoracic aortic rings) of 40 to 60%, an inhibition at 3 µM (Thoracic aortic rings) of 80 to 100% and an EC50 (Thoracic aortic rings) of less than 2 µM.
In the case of Nc1nc(-c2cc(-c3ccon3)n(Cc3ccccc3F)n2)ncc1Nc1nccs1 [Compound I-178], the “HEK WC Assay (fold increase at 30 μM in the presence of 10 μM SNP)” value [1] is reported as “E (E = 10 to <20 fold increase)”, the EC50 [1] is reported as less than 20 µM and the Emax [1, 3] is reported as 40 to 60%. For the same compound, the Emax [1, 4] was 80 to 100%, the Emax [1, 5] was 60 to 80% and the “HEK WC Assay (fold increase at 30 μM in the absence of SNP)” value [2] was “E (E = 10 to <20 fold increase)”. It also gave an inhibition at 1 µM (Thoracic aortic rings) of 60 to 80%, an inhibition at 3 µM (Thoracic aortic rings) of 100 to 120% and an inhibition at 10 µM (Thoracic aortic rings) of 100 to 120%. It also gave an EC50 (Thoracic aortic rings) of less than 2 µM.
For Nc1nc(-c2cc(-c3ccon3)n(Cc3ccccc3F)n2)ncc1NC(=O)c1ccccc1F [Compound I-172], the “HEK WC Assay (fold increase at 30 μM in the presence of 10 μM SNP)” value [1] was “E (E = 10 to <20 fold increase)”, the EC50 [1] was less than 20 µM and the Emax [1, 3] was 80 to 100%. For the same compound, the Emax [1, 4] was 60 to 80%, the Emax [1, 5] was 80 to 100% and the “HEK WC Assay (fold increase at 30 μM in the absence of SNP)” value [2] was “E (E = 10 to <20 fold increase)”. For the same compound, the inhibition at 1 µM (Thoracic aortic rings) was 80 to 100%, the inhibition at 3 µM (Thoracic aortic rings) was 100 to 120% and the inhibition at 10 µM (Thoracic aortic rings) was 100 to 120%. It also gave an EC50 (Thoracic aortic rings) of less than 2 µM.
COc1ccccc1C(=O)Nc1cnc(-c2cc(-c3ccon3)n(Cc3ccccc3F)n2)nc1N [Compound I-166] was tested, and the “HEK WC Assay (fold increase at 30 μM in the presence of 10 μM SNP)” value [1] was “G (G = 30 to <40 fold increase)”, the EC50 [1] was less than 20 µM and the Emax [1, 3] was 60 to 80%. The Emax [1, 4] was 80 to 100%, the Emax [1, 5] was 100 to 120% and the “HEK WC Assay (fold increase at 30 μM in the absence of SNP)” value [2] was “D (D = 5 to <10 fold increase)”. The inhibition at 1 µM (Thoracic aortic rings) was 40 to 60%, the inhibition at 3 µM (Thoracic aortic rings) was 80 to 100% and the inhibition at 10 µM (Thoracic aortic rings) was 100 to 120%. The EC50 (Thoracic aortic rings) was less than 2 µM.
In the case of COc1cccc(C(=O)Nc2cnc(-c3cc(-c4ccon4)n(Cc4ccccc4F)n3)nc2N)c1 [Compound I-174], the “HEK WC Assay (fold increase at 30 μM in the presence of 10 μM SNP)” value [1] is reported as “F (F = 20 to <30 fold increase)”, the EC50 [1] is reported as less than 20 µM and the Emax [1, 3] is reported as 60 to 80%. The Emax [1, 4] was 80 to 100%, the Emax [1, 5] was 100 to 120% and the “HEK WC Assay (fold increase at 30 μM in the absence of SNP)” value [2] was “E (E = 10 to <20 fold increase)”. It also gave an inhibition at 1 µM (Thoracic aortic rings) of 80 to 100%, an inhibition at 3 µM (Thoracic aortic rings) of 80 to 100% and an EC50 (Thoracic aortic rings) of less than 2 µM.
